Data published in patent US8921362B2, “6,7-dialkoxy quinazoline derivatives and methods of treating drug resistant and other tumors” (Natco Pharma Limited, priority 2008, dated 2014).

Key:
Assay in all cases: KinomeScan
Format in all cases: binding
Details in all cases: read-out: % Ctrl @ 10000 nM
JNK2 = biological target: T1, JNK2 (Homo sapiens, UniProt P45984)
T1 construct: host or cells: T7 phage grown in E. coli host derived from BL21
Experimental: (§1) Kinase assays: Assays were performed as described in Fabian et al. (2005) Nature Biotechnology, vol. 23, p. 329. Kinase-tagged T7 phage strains were grown in parallel in 24 or 96-well blocks in an E. coli host derived from the BL21 strain. E. coli were grown to log-phase and infected with T7 phage from a frozen stock (multiplicity of infection ˜0.1) and incubated with shaking at 32° C. until lysis (−90 minutes). The lysates were centrifuged and filtered to remove cell debris. […] The liganded beads were blocked with excess biotin and washed with blocking buffer (SeaBlock (Pierce), 1% BSA, 0.05% Tween 20, 1 mM DTT) to remove unbound ligand and to reduce non-specific phage binding.
(§2) Test compounds were prepared as 40× stocks in DMSO and diluted into the aqueous environment. 2.5% DMSO was added to control assays lacking a test compound. All reactions were performed in polystyrene 96-well plates that had been pretreated with blocking buffer in a final volume of 0.04 ml. […] The phage titer in the eluates was measured by quantitative PCR.

IKK-beta = biological target: T2, IKK-beta (Homo sapiens, UniProt O14920)
T2 construct: host or cells: T7 phage grown in E. coli host derived from BL21
Experimental: as §1, §2

SRMS = biological target: T3, SRMS (Homo sapiens, UniProt Q9H3Y6)
T3 construct: host or cells: T7 phage grown in E. coli (BL21-derived)
Experimental: as §1, §2

STK36 = biological target: T4, STK36 (Homo sapiens, UniProt Q9NRP7)
T4 construct: host or cells: T7 phage grown in E. coli (BL21-derived)
Experimental: as §1, §2

ACVR1B = biological target: T5, ACVR1B (Homo sapiens, UniProt P36896)
T5 construct: host or cells: E. coli (BL21-derived), T7 phage lysate
T5 sequence (P36896 24-505): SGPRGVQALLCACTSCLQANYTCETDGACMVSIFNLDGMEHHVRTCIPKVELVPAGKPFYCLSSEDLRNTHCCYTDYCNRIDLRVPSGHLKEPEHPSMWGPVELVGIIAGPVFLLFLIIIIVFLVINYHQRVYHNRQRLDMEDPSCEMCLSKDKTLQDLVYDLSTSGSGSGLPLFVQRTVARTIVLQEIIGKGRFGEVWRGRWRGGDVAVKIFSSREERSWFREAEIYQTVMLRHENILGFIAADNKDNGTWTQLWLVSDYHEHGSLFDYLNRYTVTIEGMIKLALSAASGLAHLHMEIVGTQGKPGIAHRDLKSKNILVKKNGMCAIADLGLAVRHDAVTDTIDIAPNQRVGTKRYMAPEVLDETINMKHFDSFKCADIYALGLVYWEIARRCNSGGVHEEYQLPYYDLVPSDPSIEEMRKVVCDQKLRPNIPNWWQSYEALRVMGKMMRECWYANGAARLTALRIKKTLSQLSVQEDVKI
Experimental: as §1, §2

[1] = biological target: T6, RPS6KA5(Kin.Dom.-2-C-terminal) (Homo sapiens, UniProt O75582)
T6 construct: RPS6KA5(Kin.Dom.-2-C-terminal); host or cells: E. coli host derived from BL21, T7 phage display
Experimental: as §1, §2

ABL1(F317I) = biological target: T7, ABL1(F317I) (Homo sapiens, UniProt P00519, F317I)
T7 construct: host or cells: E. coli (BL21-derived), T7 phage lysate
Experimental: as §1, §2

PLK3 = biological target: T8, PLK3 (Homo sapiens, UniProt Q9H4B4)
T8 construct: host or cells: T7 phage in E. coli host derived from BL21
Experimental: as §1, §2

SRC = biological target: T9, SRC (Homo sapiens, UniProt P12931)
T9 construct: host or cells: T7 phage grown in E. coli (BL21-derived)
Experimental: as §1, §2

BMX = biological target: T10, BMX (Homo sapiens, UniProt P51813)
T10 construct: host or cells: E. coli host derived from BL21
Experimental: as §1, §2

CDC2L1 = biological target: T11, CDC2L1 (Homo sapiens, UniProt P21127)
T11 construct: host or cells: T7 phage in E. coli host derived from BL21
Experimental: as §1, §2

MYLK2 = biological target: T12, MYLK2 (Homo sapiens, UniProt Q9H1R3)
T12 construct: host or cells: T7 phage grown in E. coli host derived from BL21
Experimental: as §1, §2

AKT2 = biological target: T13, AKT2 (Homo sapiens, UniProt P31751)
T13 construct: host or cells: E. coli (BL21-derived), T7 phage lysate
Experimental: as §1, §2

ACVR1 = biological target: T14, ACVR1 (Homo sapiens, UniProt Q04771)
T14 construct: host or cells: E. coli (BL21-derived), T7 phage lysate
Experimental: as §1, §2

ZAP70 = biological target: T15, ZAP70 (Homo sapiens, UniProt P43403)
T15 construct: host or cells: T7 phage grown in an E. coli host derived from BL21
T15 sequence (P43403 whole entry): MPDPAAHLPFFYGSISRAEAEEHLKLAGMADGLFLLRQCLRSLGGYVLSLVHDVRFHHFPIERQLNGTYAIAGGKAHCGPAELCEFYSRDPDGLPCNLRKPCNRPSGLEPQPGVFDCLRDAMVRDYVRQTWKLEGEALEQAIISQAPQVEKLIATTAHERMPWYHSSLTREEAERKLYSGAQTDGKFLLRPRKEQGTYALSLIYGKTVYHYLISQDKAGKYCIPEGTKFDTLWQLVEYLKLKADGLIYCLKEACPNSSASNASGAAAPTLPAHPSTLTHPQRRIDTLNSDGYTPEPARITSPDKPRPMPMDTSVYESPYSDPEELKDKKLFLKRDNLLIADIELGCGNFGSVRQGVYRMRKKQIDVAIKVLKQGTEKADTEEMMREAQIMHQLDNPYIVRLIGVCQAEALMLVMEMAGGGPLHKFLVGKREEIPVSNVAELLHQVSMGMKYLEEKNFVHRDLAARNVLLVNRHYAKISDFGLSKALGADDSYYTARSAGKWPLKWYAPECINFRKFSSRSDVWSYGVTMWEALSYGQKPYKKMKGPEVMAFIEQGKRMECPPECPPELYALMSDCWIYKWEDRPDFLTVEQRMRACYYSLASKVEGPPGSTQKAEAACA
Experimental: as §1, §2

MAPKAPK2 = biological target: T16, MAPKAPK2 (Homo sapiens, UniProt P49137)
T16 construct: host or cells: E. coli host derived from the BL21 strain, infected with T7 phage
Experimental: as §1, §2

TGFBR1 = biological target: T17, TGFBR1 (Homo sapiens, UniProt P36897)
T17 construct: host or cells: T7 phage grown in E. coli (BL21-derived)
T17 sequence (P36897 34-503): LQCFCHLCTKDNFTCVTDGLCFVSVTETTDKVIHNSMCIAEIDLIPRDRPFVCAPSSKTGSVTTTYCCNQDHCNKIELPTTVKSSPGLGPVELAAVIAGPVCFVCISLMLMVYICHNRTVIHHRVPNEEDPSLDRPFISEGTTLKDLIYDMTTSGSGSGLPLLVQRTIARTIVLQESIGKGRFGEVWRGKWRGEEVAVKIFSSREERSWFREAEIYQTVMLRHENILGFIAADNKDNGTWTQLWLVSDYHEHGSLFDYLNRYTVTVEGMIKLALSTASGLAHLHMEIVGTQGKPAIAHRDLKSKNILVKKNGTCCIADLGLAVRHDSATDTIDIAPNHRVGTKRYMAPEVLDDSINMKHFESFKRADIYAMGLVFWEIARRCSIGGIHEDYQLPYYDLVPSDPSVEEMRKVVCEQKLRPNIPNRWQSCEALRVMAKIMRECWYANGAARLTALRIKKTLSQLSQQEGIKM
Experimental: as §1, §2

FER = biological target: T18, FER (Homo sapiens, UniProt P16591)
T18 construct: host or cells: T7 phage in E. coli host derived from BL21
Experimental: as §1, §2

RIOK2 = biological target: T19, RIOK2 (Homo sapiens, UniProt Q9BVS4)
T19 construct: host or cells: E. coli host derived from BL21, T7 phage display
Experimental: as §1, §2

RIPK2 = biological target: T20, RIPK2 (Homo sapiens, UniProt O43353)
T20 construct: host or cells: E. coli host derived from BL21, T7 phage display
Experimental: as §1, §2

[2] = biological target: T21, TYK2(JH2domain-pseudokinase) (Homo sapiens, UniProt P29597)
T21 construct: TYK2(JH2domain-pseudokinase); host or cells: E. coli host derived from BL21, T7 phage
Experimental: as §1, §2

CLK1 = biological target: T22, CLK1 (Homo sapiens, UniProt P49759)
T22 construct: host or cells: T7 phage in E. coli host derived from BL21
Experimental: as §1, §2

PFTK1 = biological target: T23, PFTK1 (Homo sapiens, UniProt O94921)
T23 construct: host or cells: E. coli host derived from BL21, infected with T7 phage
Experimental: as §1, §2

PRKCQ = biological target: T24, PRKCQ (Homo sapiens, UniProt Q04759)
T24 construct: host or cells: T7 phage in E. coli host derived from BL21
T24 sequence (Q04759 whole entry): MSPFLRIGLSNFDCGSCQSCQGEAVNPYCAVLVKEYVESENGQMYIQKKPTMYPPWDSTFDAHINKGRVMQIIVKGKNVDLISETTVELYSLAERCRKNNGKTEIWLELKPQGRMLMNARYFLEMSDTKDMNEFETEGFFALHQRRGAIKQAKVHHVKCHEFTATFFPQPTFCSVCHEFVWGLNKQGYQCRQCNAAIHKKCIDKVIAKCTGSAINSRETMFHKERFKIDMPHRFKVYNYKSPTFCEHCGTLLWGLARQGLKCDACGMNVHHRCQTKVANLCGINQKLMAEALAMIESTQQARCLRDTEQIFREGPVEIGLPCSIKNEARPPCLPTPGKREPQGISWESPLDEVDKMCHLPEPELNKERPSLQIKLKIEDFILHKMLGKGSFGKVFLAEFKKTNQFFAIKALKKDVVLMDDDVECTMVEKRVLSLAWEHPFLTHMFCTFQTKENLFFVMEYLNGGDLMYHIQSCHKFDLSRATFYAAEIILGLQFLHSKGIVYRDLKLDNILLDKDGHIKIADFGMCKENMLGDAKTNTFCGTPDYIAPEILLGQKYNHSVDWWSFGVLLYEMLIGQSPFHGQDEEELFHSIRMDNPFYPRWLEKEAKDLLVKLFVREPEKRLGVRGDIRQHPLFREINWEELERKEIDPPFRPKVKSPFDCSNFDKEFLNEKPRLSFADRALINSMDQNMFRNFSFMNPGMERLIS
Experimental: as §1, §2

TSSK1B = biological target: T25, TSSK1B (Homo sapiens, UniProt Q9BXA7)
T25 construct: host or cells: E. coli host derived from BL21, T7 phage
Experimental: as §1, §2

PKAC-alpha = biological target: T26, PKAC-alpha (Homo sapiens, UniProt P17612)
T26 construct: host or cells: T7 phage in E. coli host derived from BL21
Experimental: as §1, §2

PAK1 = biological target: T27, PAK1 (Homo sapiens, UniProt Q13153)
T27 construct: host or cells: E. coli host derived from BL21, infected with T7 phage
Experimental: as §1, §2

MLK2 = biological target: T28, MLK2 (Homo sapiens, UniProt Q02779)
T28 construct: host or cells: T7 phage grown in E. coli host derived from BL21
T28 sequence (Q02779 whole entry): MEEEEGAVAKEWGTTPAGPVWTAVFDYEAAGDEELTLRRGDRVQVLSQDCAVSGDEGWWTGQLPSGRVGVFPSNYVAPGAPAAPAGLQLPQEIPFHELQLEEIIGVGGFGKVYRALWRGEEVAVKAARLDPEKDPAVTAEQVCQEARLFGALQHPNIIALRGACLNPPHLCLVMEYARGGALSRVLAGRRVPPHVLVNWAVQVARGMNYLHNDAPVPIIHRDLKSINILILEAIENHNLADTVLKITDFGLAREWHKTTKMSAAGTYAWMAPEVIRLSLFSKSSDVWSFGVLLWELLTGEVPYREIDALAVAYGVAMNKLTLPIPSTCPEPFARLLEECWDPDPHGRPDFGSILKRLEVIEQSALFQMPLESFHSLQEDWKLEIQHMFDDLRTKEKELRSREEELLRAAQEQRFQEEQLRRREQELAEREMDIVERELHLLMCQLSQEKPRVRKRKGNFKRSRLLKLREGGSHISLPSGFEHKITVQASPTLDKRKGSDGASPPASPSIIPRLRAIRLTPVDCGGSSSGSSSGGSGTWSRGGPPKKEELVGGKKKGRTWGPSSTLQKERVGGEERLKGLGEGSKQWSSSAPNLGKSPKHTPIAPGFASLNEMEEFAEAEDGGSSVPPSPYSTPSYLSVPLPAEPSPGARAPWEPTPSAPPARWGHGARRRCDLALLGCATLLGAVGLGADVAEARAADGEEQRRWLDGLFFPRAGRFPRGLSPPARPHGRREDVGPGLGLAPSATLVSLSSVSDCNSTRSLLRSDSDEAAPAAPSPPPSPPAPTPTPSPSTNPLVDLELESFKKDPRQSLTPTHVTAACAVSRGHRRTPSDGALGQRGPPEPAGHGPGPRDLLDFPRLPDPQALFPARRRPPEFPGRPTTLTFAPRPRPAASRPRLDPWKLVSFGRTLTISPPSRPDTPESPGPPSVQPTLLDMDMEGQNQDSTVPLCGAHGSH
Experimental: as §1, §2

PIK3CA = biological target: T29, PIK3CA (Homo sapiens, UniProt P42336)
T29 construct: host or cells: E. coli host derived from BL21, infected with T7 phage
Experimental: as §1, §2

EPHA7 = biological target: T30, EPHA7 (Homo sapiens, UniProt Q15375)
T30 construct: purchased Ambit Biosciences Corp; host or cells: T7 phage in E. coli host derived from BL21
Experimental: as §1, §2

PIM1 = biological target: T31, PIM1 (Homo sapiens, UniProt P11309)
T31 construct: host or cells: T7 phage in E. coli host derived from BL21
Experimental: as §1, §2

ALK = biological target: T32, ALK (Homo sapiens, UniProt Q9UM73)
T32 construct: host or cells: E. coli (BL21-derived), T7 phage lysate
T32 sequence (Q9UM73 19-1620): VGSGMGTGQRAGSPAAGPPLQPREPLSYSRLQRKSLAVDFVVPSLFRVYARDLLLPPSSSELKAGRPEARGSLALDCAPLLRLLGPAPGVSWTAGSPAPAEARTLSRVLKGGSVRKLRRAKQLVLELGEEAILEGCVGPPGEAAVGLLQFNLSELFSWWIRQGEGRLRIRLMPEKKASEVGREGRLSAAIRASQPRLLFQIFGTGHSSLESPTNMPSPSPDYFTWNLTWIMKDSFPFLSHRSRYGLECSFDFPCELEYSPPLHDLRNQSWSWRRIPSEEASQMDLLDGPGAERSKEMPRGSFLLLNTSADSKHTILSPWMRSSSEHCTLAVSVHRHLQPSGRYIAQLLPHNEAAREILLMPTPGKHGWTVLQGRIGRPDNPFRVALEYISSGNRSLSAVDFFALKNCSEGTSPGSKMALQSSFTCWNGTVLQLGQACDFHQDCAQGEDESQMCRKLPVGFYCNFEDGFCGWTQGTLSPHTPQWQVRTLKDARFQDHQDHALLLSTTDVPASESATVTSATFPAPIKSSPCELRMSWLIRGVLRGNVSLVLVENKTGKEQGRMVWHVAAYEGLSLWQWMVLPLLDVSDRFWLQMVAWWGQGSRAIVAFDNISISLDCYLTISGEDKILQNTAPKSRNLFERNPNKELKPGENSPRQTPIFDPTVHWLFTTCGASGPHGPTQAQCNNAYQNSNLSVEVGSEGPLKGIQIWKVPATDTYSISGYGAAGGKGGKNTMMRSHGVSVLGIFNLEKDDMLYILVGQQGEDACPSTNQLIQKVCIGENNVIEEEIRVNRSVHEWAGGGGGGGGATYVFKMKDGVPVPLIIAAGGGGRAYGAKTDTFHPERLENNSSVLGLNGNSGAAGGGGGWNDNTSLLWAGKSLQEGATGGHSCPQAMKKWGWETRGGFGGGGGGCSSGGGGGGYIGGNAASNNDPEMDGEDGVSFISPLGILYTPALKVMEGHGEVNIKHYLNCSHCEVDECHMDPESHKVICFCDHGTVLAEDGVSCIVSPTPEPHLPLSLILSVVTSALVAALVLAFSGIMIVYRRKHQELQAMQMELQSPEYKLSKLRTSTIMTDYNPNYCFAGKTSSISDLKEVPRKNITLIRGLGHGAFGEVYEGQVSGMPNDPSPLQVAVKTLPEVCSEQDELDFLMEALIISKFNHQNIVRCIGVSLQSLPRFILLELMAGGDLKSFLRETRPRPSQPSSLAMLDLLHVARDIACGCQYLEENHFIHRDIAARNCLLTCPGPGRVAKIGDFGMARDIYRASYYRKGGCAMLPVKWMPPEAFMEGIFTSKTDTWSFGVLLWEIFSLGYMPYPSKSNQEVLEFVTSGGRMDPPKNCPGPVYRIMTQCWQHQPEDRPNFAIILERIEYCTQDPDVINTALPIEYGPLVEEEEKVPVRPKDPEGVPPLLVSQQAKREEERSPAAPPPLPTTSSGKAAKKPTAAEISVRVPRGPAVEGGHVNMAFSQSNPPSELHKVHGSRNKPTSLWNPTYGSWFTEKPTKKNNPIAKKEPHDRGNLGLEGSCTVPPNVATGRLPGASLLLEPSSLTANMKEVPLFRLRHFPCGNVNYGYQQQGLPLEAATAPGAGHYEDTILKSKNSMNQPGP
Experimental: as §1, §2

PIK3C2B = biological target: T33, PIK3C2B (Homo sapiens, UniProt O00750)
T33 construct: host or cells: E. coli host derived from BL21, infected with T7 phage
Experimental: as §1, §2

`C#Cc1cccc(Nc2ncnc3cc(OC)c(OCCCN4CCOCC4)cc23)c1` [NRC-2694, N-(3-ethynylphenyl)-7-methoxy-6-[3-(4-morpholinyl)propoxy]-4-quinazolinamine] was tested, and the remaining binding at 10 µM (JNK2) was 95%, the remaining binding at 10 µM (IKK-beta) was 51% and the remaining binding at 10 µM (SRMS) was 100%. It also gave a remaining binding at 10 µM (STK36) of 4.6%, a remaining binding at 10 µM (ACVR1B) of 63% and a remaining binding at 10 µM [1] of 57%. The remaining binding at 10 µM (ABL1(F317I)) was 48%, the remaining binding at 10 µM (PLK3) was 97% and the remaining binding at 10 µM (SRC) was 24%. The remaining binding at 10 µM (BMX) was 73%, the remaining binding at 10 µM (CDC2L1) was 42% and the remaining binding at 10 µM (MYLK2) was 4.8%. For the same molecule, the remaining binding at 10 µM (AKT2) was 100%, the remaining binding at 10 µM (ACVR1) was 61% and the remaining binding at 10 µM (ZAP70) was 100%. It also gave a remaining binding at 10 µM (MAPKAPK2) of 90%, a remaining binding at 10 µM (TGFBR1) of 83% and a remaining binding at 10 µM (FER) of 94%. For the same molecule, the remaining binding at 10 µM (RIOK2) was 43%, the remaining binding at 10 µM (RIPK2) was 2.4% and the remaining binding at 10 µM [2] was 23%. For the same molecule, the remaining binding at 10 µM (CLK1) was 31%, the remaining binding at 10 µM (PFTK1) was 71% and the remaining binding at 10 µM (PRKCQ) was 83%. For the same molecule, the remaining binding at 10 µM (TSSK1B) was 93%, the remaining binding at 10 µM (PKAC-alpha) was 100% and the remaining binding at 10 µM (PAK1) was 74%. The remaining binding at 10 µM (MLK2) was 83%, the remaining binding at 10 µM (PIK3CA) was 100% and the remaining binding at 10 µM (EPHA7) was 70%. The remaining binding at 10 µM (PIM1) was 39%, the remaining binding at 10 µM (ALK) was 10% and the remaining binding at 10 µM (PIK3C2B) was 93%.
